From US7141661B2, “Non-steroidal anti-inflammatory drug activated gene with anti-tumorigenic properties” (The United States of America as represented by the …, priority 2000, dated 2006)

Tested on: HCT-116 cells
Experiment: Apoptosis by FACS in HCT-116 cells stably transfected with vector, sense or antisense NAG-1
Type: cell-based, human
Settings: 100 μM, 48 hr
Excerpt: HCT-116 cells were stably transfected with an expression vector containing the full-length NAG-1 coding region in the sense and antisense orientations. The sense cells expressed NAG-1 protein at a level that was 2.0–2.5 fold greater than the vector transfected cells, while the anti-sense cells expressed slightly lower NAG-1 levels compared to vector transfected cells. […] The full-length NAG-1 (sense strand and antisense strand) was cloned into the pCDNA3.1 expression vector and transfected into HCT-116 cells. Each cell was grown under G418 (500 μg/ml) for 2 weeks and treated with either vehicle or INDO (100 μM). After growing for 48 hr, the media was harvested, concentrated, and subjected to Western analysis. Thirty μg of total protein was loaded in each lane, and the arrow indicates the NAG-1 protein band.
Despite repeated attempts, construction of NAG-1 highly expressing cells which may be linked to high rates of apoptosis were not generated (data not shown). […] This could be due to effects on cell proliferation and/or an increase in cell death. […] The stably transfected cells were then incubated with 100 μM indomethacin for 48 hr and the percentage of cells in apoptosis determined by FACS analysis as described in Example 1. The data shown in FIG. 6 represent mean±S.D. Indomethacin enhanced the percentage of apoptotic cells by approximately 2 fold in the vector-HCT-116 and sense cells.

Q: Which Stimulation of apoptosis (antisense HCT-116 cells) does the source give for `COc1ccc2c(c1)c(CC(=O)O)c(C)n2C(=O)c1ccc(Cl)cc1` [Indomethacin] here?
A: Its Stimulation of apoptosis is “did not stimulate apoptosis”.

Q: What about the “Enhancement of percentage of apoptotic cells” value (sense NAG-1 HCT-116 cells) of the same compound?
A: The value was “approximately 2 fold”.

Q: And the “Enhancement of percentage of apoptotic cells” value (vector-HCT-116 cells)?
A: The value was “approximately 2 fold”.
